Consider two compounds from BindingDB's records for doi:10.1074/jbc.M501367200 (Berlex Biosciences, 2005).

By IC50 is commonly meant the concentration that gives 50% inhibition. Low values mean greater potency, high ones weaker potency.

The experiment addresses T1, 3-phosphoinositide-dependent protein kinase 1 (Homo sapiens, UniProt O15530).
T1 sequence (O15530 whole entry): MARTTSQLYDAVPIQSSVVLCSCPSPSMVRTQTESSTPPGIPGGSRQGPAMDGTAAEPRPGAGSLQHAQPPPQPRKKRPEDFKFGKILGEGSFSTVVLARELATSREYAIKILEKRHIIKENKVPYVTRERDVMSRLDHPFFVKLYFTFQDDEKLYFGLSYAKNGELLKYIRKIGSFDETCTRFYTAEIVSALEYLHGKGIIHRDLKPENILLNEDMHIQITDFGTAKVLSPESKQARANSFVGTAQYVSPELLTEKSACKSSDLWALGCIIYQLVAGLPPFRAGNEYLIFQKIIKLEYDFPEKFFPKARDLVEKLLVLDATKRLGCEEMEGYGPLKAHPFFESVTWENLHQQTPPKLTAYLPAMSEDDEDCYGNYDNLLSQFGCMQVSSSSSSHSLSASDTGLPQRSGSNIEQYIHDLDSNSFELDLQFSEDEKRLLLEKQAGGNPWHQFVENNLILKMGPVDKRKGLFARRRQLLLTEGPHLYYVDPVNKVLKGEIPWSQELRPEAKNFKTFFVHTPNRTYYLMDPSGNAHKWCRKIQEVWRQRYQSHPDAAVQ
The experiment can be described thus: PDK1-mediated AKT2 Activation Assay (cAKT2 33P-SPA). As to conditions: pH 7.2; 22 °C. The protocol: The coupled assay can detect inhibitors of AKT2 activation, as well as direct inhibitors of PDK1 or AKT2. Inactive AKT2 is activated in situ by incubating with PDK1 and PtdIns-3, 4-P2 in the presence of compound, 33P-ATP, and a biotinylated peptide substrate for AKT2. The peptide is captured on streptavidin-coated SPA beads for detection.

For the compound `O=C(Nc1cccc(Nc2ncc(Br)c(NCCc3c[nH]cn3)n2)c1)N1CCCC1` [N-{3-[(5-bromo-4-{[2-(1H-imidazol-4-yl)ethyl]amino}pyrimidin-2-yl)amino]phenyl}pyrrolidine-1-carboxamide], inhibition was half-maximal at 12 nM (IC50).
Take `O=C(NCCCNc1nc(Nc2cccc(NC(=O)N3CCCC3)c2)ncc1I)c1cccs1` [N-{3-[(5-iodo-4-{[3-(thiophen-2-ylformamido)propyl]amino}pyrimidin-2-yl)amino]phenyl}pyrrolidine-1-carboxamide]: half-maximal inhibition (IC50) was put at 6 nM.
